From patent US9884806B2, “Cyclic vinylogous amides as bromodomain inhibitors” (ICAHN SCHOOL OF MEDICINE AT MOUNT SINAI, priority 2013, dated 2018)
Where two headings read alike, the source gives them in different places.

How the values were obtained:
[1] = tested on: mRNA transcript levels of cytokines IL-6, IL-1β and TNFα in RAW264.7 cells; test: LPS-induced transcriptional activation of cytokines in murine macrophage cells (quantitative PCR); type: cell-based; conditions: Mus musculus
Method: LPS-Induced Transcriptional Activation of Cytokines in Murine Macrophage Cells RAW264.7 cells were cultivated with or without a treatment of the compounds as described above. Total RNA was isolated the cells using TRIzol reagent (Gibco, Grand Island, N.Y.) for homogenization. The concentration and integrity of RNA were determined by measuring absorbance at a 260 nm/280 nm ratio. Quantitative PCR was performed to determine the mRNA transcript levels of cytokines IL-6, IL-1β and TNFα with specific primers for these target genes. Each experiment was performed at least in triplicate, and plotted using Prim, and an IC50 value was calculated.

[2] = target: T1, BRD4_2 (Homo sapiens, UniProt O60885); test: Fluorescence anisotropy binding assay (competition with FITC-labeled MS417 probe), BRD4_2; conditions: FITC-MS417 probe 80 nM, PBS pH 7.4, 1 hour, 25° C.
T1 construct: contains two tandem bromodomains (BrD1 and BrD2)

[3] = tested on: NO release in RAW264.7 cells; test: LPS-stimulated nitric oxide (NO) release in murine macrophage RAW264.7 cells (Griess reaction); type: cell-based; conditions: Mus musculus, read-out: IC50 in inhibition of LPS-induced NO release
Method: LPS-Stimulated Nitric Oxide (NO) Release in Murine Macrophage RAW264.7 Cells
RAW264.7 cells was cultivated in DMEM supplemented with 10% FBS at 37° C. in a humidified atmosphere of 5% CO2. Cells in 96-well plates (0.1 ml, 3×10^5 cells/ml) were treated with the test compounds. After 30 min, all supernatants were removed and cells were treated with LPS (1 μg/ml) and the test compounds. After 24 hours, the level of nitrite was measured using Griess reaction G2930 (Promega Corp., Madison, Wis.) [see Bredt and Snyder, Ann Rev Biochem 63, 175-195 (1994)]. The test compounds dissolved in DMSO were diluted with culture medium to concentrations from 0.28 to 50,000 nM. The final concentration of DMSO was adjusted to 0.05% (v/v). The nitrite production was measured by spectrophotometry at 520 nm using EnVison 2104 Multilabel Reader (PerkinElmer, Inc., Waltham, Mass.). Each experiment was performed at least in triplicate and plotted using Prism.

[4] = target: T2, first bromodomain (BrD1) of human BRD4 (Homo sapiens, UniProt O60885); test: Fluorescence anisotropy binding assay (competition with FITC-labeled MS417 probe); conditions: FITC-MS417 probe 80 nM, PBS pH 7.4, 1 hour, 25° C., read-out: BRD4_1 IC50
T2 construct: the first bromodomain (BrD1) of human BRD4; poly-His (cleaved yes); made in house
Outline: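 BRD4 BrD1 (His tag removed by thrombin) at 0.25 to 1 μM competed against 80 nM FITC-labeled MS417 in PBS pH 7.4. Anisotropy read after 1 hour at 25° C. Ki derived from fitted IC50 by Nikolovska-Coleska-corrected Cheng-Prusoff equation, one-site competitive model.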

[5] = Human, rat, and mouse microsome stability assay; type: in vitro ADME; conditions: Sprague-Dawley (rat), CD1 (mouse), pH 7.4, rat, and mouse liver microsomes, 0.5 μM compound, 0.25 mg/mL microsomal protein, 37° C., read-out: intrinsic clearance Clint
Method: Human, Rat, and Mouse Microsome Stability Assay
Human, rat, and mouse liver microsomal incubations were carried out at 37° C. with a final incubation volume of 135 μL. Human liver microsomes (mixed gender, Catalog No. H2610) were obtained from XenoTech. Rat liver microsomes (male Sprague-Dawley, Catalog No. 452501) were obtained from BD Gentest. Mouse liver microsomes (male CD1, Catalog No. 452701) were obtained from BD Gentest. Incubations were conducted using a test compound (initially dissolved in DMSO at […] concentration) concentration of 0.5 μM and 0.25 mg/mL microsomal protein in 50 mM phosphate buffer at pH 7.4. Time zero samples were prepared by transferring 13.5 μL of compound-microsomal mix to the quench plates containing 45 μL of quench solution made of 10 nM Buspirone (Sigma) or 50 nM Carbutamide (Princeton Bio) as internal standard in 1:1 methanol:acetonitrile. An aliquot of 1.5 μL Nicotinamide adenine dinucleotide phosphate reduced tetrasodium salt (NADPH) was also added to the time zero plates. The reaction was then initiated by the addition of 13.5 μL NADPH to the compound-microsomal mix. At each of the remaining time points (5, 10, 15, 20, 30, 45 and 60 min) 15 μL of incubation mixture was added to 45 μL of quench solution. Samples were centrifuged for 15-30 minutes at 3800 rpm. Samples were then pooled for 6 per group. An aliquot of 60 μL of supernatant was transferred to 96-well plate, and a 5 μL aliquot was injected and analyzed by LC-MS (Applied Biosystems API 5500 QTrap).

[6] = tested on: IL-8 expression in human basal-like breast cancer cells (BLBCs); test: ELISA assay assessing IL-8 expression in BLBCs; type: cell-based; conditions: read-out: IC50, inhibition of IL-8 expression
Method: ELISA Assay Assessing IL-8 Expression in BLBCs […] The following day upon cells adhesion to the plate bottom, all supernatants were carefully discarded followed by adding test compounds diluted in culturing medium. The test compounds dissolved in DMSO (Sigma-Aldrich Chemical Co., St. […] The final concentration of DMSO was adjusted to 0.05% (v/v). At the end of 24-hour incubation, all supernatants were carefully removed and stored at −80° C. if the subsequent steps would not be performed immediately. The Human IL-8 ELISA Ready-Set-Go! (2nd generation) is used (Catalog No. 88-8086) against the prepared samples. The samples along with the Standard Human IL-8 Recombinant Protein (prepared in duplicates in a 2-fold serial dilution from 250 pg/ml to 2 pg/ml) were incubated overnight for maximal sensitivity. The assay was measured by an absorption reading at 450 nm using EnVision 2104 Multilabel Reader (PerkinElmer, Inc., Waltham, Mass.). Each experiment was performed at least in duplicate and plotted using Prism. The curve fitting equation used was “log(inhibitor) vs. response variable slope (four parameters)”.

[7] = tested on: primary human AML stem- and progenitor cells; conditions: cited from earlier work
[8] = RAW264.7 cells, LPS, quantitative PCR of mRNA transcript levels, read-out: IC50 in inhibition of transcriptional activation of the cytokines IL-6, IL-1β and TNFα
[9] = RAW264.7 cells, LPS 1 μg/ml, 24 hours, nitrite by Griess reaction
[10] = RAW264.7, read-out: IC50 in inhibition of transcriptional activation of the cytokines IL-6, IL-1β and TNFα
[11] = panel of human BLBC cells MDA-MB-435S, MDA-MB-231, BT-549, MDA-MB-157, HS578T, SUM1315, 24-hour incubation

| Structure (SMILES) | IC50 [2] | IC50 [3, 9] | IC50 [4] | microsomal CLint at 0.5 μM [5] | melting point | IC50 [1, 8] | other results |
| --- | --- | --- | --- | --- | --- | --- | --- |
| COc1ccccc1NC(=O)c1ccc(NC2=C(C)C(=O)CC2)c(Cl)c1 [Example 04-17, 3-chloro-N-(2-methoxyphenyl)-4-((2-methyl-3-oxocyclopent-1-en-1-yl)amino)benzamide] | 1 to 10 µM | 100 to 5000 nM | < 1000 nM |  |  | 100 to 5000 nM |  |
| CC1=C(Nc2ccc(C(=O)Nc3cccc4ccccc34)cc2Cl)CCC1=O [Example 04-15, 3-chloro-4-((2-methyl-3-oxocyclopent-1-en-1-yl)amino)-N-(naphthalen-1-yl)-benzamide] | 1 to 10 µM |  | < 1000 nM |  |  |  | IC50 [1, 10]: 100 to 5000 nM; IC50 ([3]; RAW264.7, 24 h): 100 to 5000 nM |
| CC1=C(Nc2cc(C(=O)Nc3ccccc3C)ccc2Cl)CCCC1=O [Example 04-91, 4-chloro-3-((2-methyl-3-oxocyclohex-1-en-1-yl)amino)-N-(o-tolyl)benzamide] | 1 to 10 µM | 100 to 5000 nM | 1000 to 10000 nM |  |  | 100 to 5000 nM |  |
| CC1=C(Nc2cc(C(=O)Nc3ccccc3C)ccc2Cl)CCC1=O [Example 04-89, 4-chloro-3-((2-methyl-3-oxocyclopent-1-en-1-yl)amino)-N-(o-tolyl)benzamide] | 1 to 10 µM |  | < 1000 nM |  |  |  | IC50 [1, 10]: 100 to 5000 nM; IC50 ([3]; RAW264.7, 24 h): 100 to 5000 nM |
| CC1=C(Nc2cc(C(=O)O)ccc2Cl)CCCC1=O [Example 01-36, 4-chloro-3((2-methyl-3-oxocyclohex-1-en-1-yl)amino)benzoic acid] | > 10 µM | 100 to 5000 nM | > 10000 nM |  | 232 to 235 °C | 100 to 5000 nM |  |
| CC1=C(Nc2cc(NS(=O)(=O)c3ccccc3C)ccc2Cl)CCC1=O [Example 05-57, N-(4-chloro-3-((2-methyl-3-oxocyclopent-1-en-1-yl)amino)phenyl)-2-methylbenzenesulfonamide] | < 1 µM |  | < 1000 nM | 25 to 250 µL/min/mg | 236 to 238 °C |  | IC50 ([6]; Homo sapiens, 24 h): 100 to 1000 nM |
| CC1=C(Nc2ccc3cc(C(=O)O)ccc3c2)CCCC1=O [Example 01-41, 6((2-methyl-3-oxocyclohex-1-en-1-yl)amino)-2-naphthoic acid] | 1 to 10 µM |  | 1000 to 10000 nM | 25 to 250 µL/min/mg | 259 to 263 °C |  |  |
| COc1ccc(NC(=O)Cc2cccc(NC3=C(C)C(=O)CCC3)c2)cc1 [Example 04-98, N-(4-methoxyphenyl)-2-(3-((2-methyl-3-oxocyclohex-1-en-1-yl)amino)phenyl)-acetamide] | > 10 µM |  | > 10000 nM |  |  |  | IC50 [1, 10]: 100 to 5000 nM; IC50 ([3]; RAW264.7, 24 h): 100 to 5000 nM |
| Cc1sc2c(c1C)C(c1ccc(Cl)cc1)=N[C@@H](CC(=O)OC(C)(C)C)c1nnc(C)n1-2 [JQ1] |  |  |  |  |  |  | apoptosis in CD34+/CD38− and CD34+/CD38+ stem- and progenitor cells ([7]; all donors): induce apoptosis; growth-inhibition and apoptosis ([7]; primary human AML stem- and progenitor cells, including relapsed or refractory patients): leads to growth-inhibition and apoptosis |
| CC1=C(Nc2ccc3ccccc3c2)CCC1=O [Example 01-27, 2-methyl-3-(naphthalen-2-ylamino)cyclopent-2-enone] | 1 to 10 µM |  | 1000 to 10000 nM |  | 248 to 250 °C |  |  |

Now from value to compound, other results behind:

| IC50 [2] | IC50 [3, 9] | IC50 [4] | microsomal CLint at 0.5 μM [5] | melting point | Structure (SMILES) | IC50 [1, 8] | other results |
| --- | --- | --- | --- | --- | --- | --- | --- |
| 1 to 10 µM | 100 to 5000 nM | < 1000 nM |  |  | CC1=C(Nc2ccc(C(=O)Nc3ccccc3C)cc2Cl)CCCC1=O [Example 05-15, 3-chloro-4-((2-methyl-3-oxocyclohex-1-en-1-yl)amino)-N-(o-tolyl)benzamide] | 100 to 5000 nM |  |
| 1 to 10 µM |  | < 1000 nM | 25 to 250 µL/min/mg | 248 to 250 °C | CC1=C(Nc2ccc(NS(=O)(=O)c3ccccc3C)cc2Cl)CCCC1=O [Example 05-68, N-(3-chloro-4-((2-methyl-3-oxocyclohex-1-en-1-yl)amino)phenyl)-2-methylbenzenesulfonamide] |  | IC50 [6, 11]: 100 to 1000 nM |
| 1 to 10 µM | 100 to 5000 nM | < 1000 nM |  |  | CC1=C(Nc2cccc(-c3cn(Cc4ccccc4)nn3)c2)CCC1=O [Example 06-04, 3-((3-(1-benzyl-1H-1,2,3-triazol-4-yl)phenyl)amino)-2-methylcyclopent-2-enone] | 100 to 5000 nM |  |
| > 10 µM |  | < 1000 nM | 25 to 250 µL/min/mg | 185 to 187 °C | CC1=C(Nc2cccc(NS(=O)(=O)c3ccccc3C)c2Cl)CCCC1=O [Example 05-70, N-(2-chloro-3-((2-methyl-3-oxocyclohex-1-en-1-yl)amino)phenyl)-2-methylbenzenesulfonamide] |  | IC50 [6, 11]: 100 to 1000 nM |
| < 1 µM |  | < 1000 nM | 25 to 250 µL/min/mg | 246 to 248 °C | CC1=C(Nc2cc(NS(=O)(=O)c3ccccc3C)ccc2Cl)CCCC1=O [Example 05-66, N-(4-chloro-3-((2-methyl-3-oxocyclohex-1-en-1-yl)amino)phenyl)-2-methylbenzenesulfonamide] |  |  |
